Test results: US20170198006A1, “PRMT5 INHIBITORS AND USES THEREOF” (Epizyme, Inc., priority 2014, published 2017)

Legend:
PRMT5/MEP50 = target: T1, PRMT5/MEP50 (Homo sapiens, UniProt O14744); experiment: PRMT5 Biochemical Assay (PRMT5/MEP50 enzyme assay on histone H4 peptide substrate, 3H-SAM Flashplate); conditions: PRMT5 biochemical assay; read-out: Biochemical IC50
T1 construct: Flag-PRMT5; made in house; host or cells: Spodoptera frugiperda (SF9), baculovirus
How it was run: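 Sf9-expressed Flag-PRMT5/6His-MEP50 preincubated with compound 30 min at 25 °C, then methylation of biotinylated H4 1-15 peptide started with ³H-SAM in 20 mM Bicine pH 7.6, 1 mM TCEP, 0.005% BSG, 0.002% Tween20.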

[1] = tested on: symmetric di-methyl arginine in Z-138 cells; experiment: Z-138 Methylation Assay (In Cell Western for symmetric di-methyl arginine and DNA content); type: cell-based; conditions: Homo sapiens, read-out: ICW EC50
Description: Z-138 suspension cells were purchased from ATCC (American Type Culture Collection, Manassas, Va.). RPMI/Glutamax medium, penicillin-streptomycin, heat inactivated fetal bovine serum, and D-PBS were purchased from Life Technologies, Grand Island, N.Y., USA. Odyssey blocking buffer, 800CW goat anti-rabbit IgG (H+L) antibody, and Licor Odyssey infrared scanner were purchased from Licor Biosciences, Lincoln, Nebr., USA. Symmetric di-methyl arginine antibody was purchased from EMD Millipore, Billerica, Mass., USA. 16% Paraformaldehyde was purchased from Electron Microscopy Sciences, Hatfield, Pa., USA.
Z-138 suspension cells were maintained in growth medium (RPMI 1640 supplemented with 10% v/v heat inactivated fetal bovine serum and 100 units/mL penicillin-streptomycin) and cultured at 37° C. under 5% CO2.
Cell Treatment, in Cell Western (ICW) for Detection of Symmetric Di-Methyl Arginine and DNA Content.
Z-138 cells were seeded in assay medium at a concentration of 50,000 cells per mL to a 384-well cell culture plate with 50 μL per well. Compound (100 nL) from 384 well source plates was added directly to 384 well cell plate. Plates were incubated at 37° C., 5% CO2 for 96 hours. After four days of incubation, 40 μL of cells from incubated plates were added to poly-D-lysine coated 384 well culture plates (BD Biosciences 356697). Plates were incubated at room temperature for 30 minutes then incubated at 37° C., 5% CO2 for 5 hours. After the incubation, 40 μL per well of 8% paraformaldehyde in PBS (16% paraformaldahyde was diluted to 8% in PBS) was added to each plate and incubated for 30 minutes. Plates were transferred to a Biotek 405 plate washer and washed 5 times with 100 μL per well of wash buffer (1×PBS with 0.1% Triton X-100 (v/v)). Next 30 μL per well of Odyssey blocking buffer were added to each plate and incubated 1 hour at room temperature. Blocking buffer was removed and 20 μL per well of primary antibody was added (symmetric di-methyl arginine diluted 1:100 in Odyssey buffer with 0.1% Tween 20 (v/v)) and plates were incubated overnight (16 hours) at 4° C. Plates were washed 5 times with 100 μL per well of wash buffer. Next 20 μL per well of secondary antibody was added (1:200 800CW goat anti-rabbit IgG (H+L) antibody, 1:1000 DRAQ5 (Biostatus limited) in Odyssey buffer with 0.1% Tween 20 (v/v)) and incubated for 1 hour at room temperature. The plates were washed 5 times with 100 μL per well wash buffer then 1 time with 100 μL per well of water. Plates were allowed to dry at room temperature then imaged on the Licor Odyssey machine which measures integrated intensity at 700 nm and 800 nm wavelengths. Both 700 and 800 channels were scanned.
First, the ratio for each well was determined by:
Each plate included fourteen control wells of DMSO only treatment (minimum inhibition) as well as fourteen control wells for maximum inhibition treated with 3 μM of a reference compound (Background wells). The average of the ratio values for each control type was calculated and used to determine the percent inhibition for each test well in the plate. Reference compound was serially diluted three-fold in DMSO for a total of nine test concentrations, beginning at 3 μM. Percent inhibition was determined and IC50 curves were generated using triplicate wells per concentration of compound.

Z-138 cells = experiment: Z-138 Proliferation Assay (Cell Titer Glo, 5 days); type: cell-based; conditions: Homo sapiens, 120 h
Description: Z-138 Proliferation Assay
Z-138 suspension cells were purchased from ATCC (American Type Culture Collection, Manassas, Va.). RPMI/Glutamax medium, penicillin-streptomycin, heat inactivated fetal bovine serum were purchased from Life Technologies, Grand Island, N.Y., USA. V-bottom polypropylene 384-well plates were purchased from Greiner Bio-One, Monroe, N.C., USA. Cell culture 384-well white opaque plates were purchased from Perkin Elmer, Waltham, Mass., USA. Cell-Titer Glo® was purchased from Promega Corporation, Madison, Wis., USA. SpectraMax M5 plate reader was purchased from Molecular Devices LLC, Sunnyvale, Calif., USA.
Z-138 suspension cells were maintained in growth medium (RPMI 1640 supplemented with 10% v/v heat inactivated fetal bovine serum and cultured at 37° C. under 5% CO2. Under assay conditions, cells were incubated in assay medium (RPMI 1640 supplemented with 10% v/v heat inactivated fetal bovine serum and 100 units/mL penicillin-streptomycin) at 37° C. under 5% CO2.
For the assessment of the effect of compounds on the proliferation of the Z-138 cell line, exponentially growing cells were plated in 384-well white opaque plates at a density of 10,000 cells/ml in a final volume of 50 μl of assay medium. A compound source plate was prepared by performing triplicate nine-point 3-fold serial dilutions in DMSO, beginning at 10 mM (final top concentration of compound in the assay was 20 μM and the DMSO was 0.2%). A 100 nL aliquot from the compound stock plate was added to its respective well in the cell plate. […] After addition of compounds, assay plates were incubated for 5 days at 37° C., 5% CO2, relative humidity >90%.
Cell viability was measured by quantitation of ATP present in the cell cultures, adding 35 μl of Cell Titer Glo® reagent to the cell plates. Luminescence was read in the SpectraMax M5 microplate reader. The concentration of compound inhibiting cell viability by 50% was determined using a 4-parametric fit of the normalized dose response curves.

T1 sequence (O14744 with tags, fused parts or gaps): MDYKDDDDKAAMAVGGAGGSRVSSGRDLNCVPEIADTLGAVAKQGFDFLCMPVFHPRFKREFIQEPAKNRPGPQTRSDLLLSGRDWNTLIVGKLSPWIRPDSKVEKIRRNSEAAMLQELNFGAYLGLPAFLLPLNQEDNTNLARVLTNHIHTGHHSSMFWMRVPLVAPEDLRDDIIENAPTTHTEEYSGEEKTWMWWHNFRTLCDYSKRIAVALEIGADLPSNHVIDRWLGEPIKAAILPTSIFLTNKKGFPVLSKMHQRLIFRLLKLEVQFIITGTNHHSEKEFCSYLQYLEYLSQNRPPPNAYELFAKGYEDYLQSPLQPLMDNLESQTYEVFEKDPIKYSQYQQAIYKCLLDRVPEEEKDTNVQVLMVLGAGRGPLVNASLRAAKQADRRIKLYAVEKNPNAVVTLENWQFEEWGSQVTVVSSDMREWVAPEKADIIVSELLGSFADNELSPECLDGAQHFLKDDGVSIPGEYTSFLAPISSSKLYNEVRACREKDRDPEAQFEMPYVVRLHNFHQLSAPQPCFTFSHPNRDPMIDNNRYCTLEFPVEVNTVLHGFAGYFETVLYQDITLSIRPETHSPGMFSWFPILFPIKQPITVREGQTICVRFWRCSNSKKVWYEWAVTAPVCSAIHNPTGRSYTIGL
T1 sequence (Q9BQA1 with tags, fused parts or gaps partner limits assumed): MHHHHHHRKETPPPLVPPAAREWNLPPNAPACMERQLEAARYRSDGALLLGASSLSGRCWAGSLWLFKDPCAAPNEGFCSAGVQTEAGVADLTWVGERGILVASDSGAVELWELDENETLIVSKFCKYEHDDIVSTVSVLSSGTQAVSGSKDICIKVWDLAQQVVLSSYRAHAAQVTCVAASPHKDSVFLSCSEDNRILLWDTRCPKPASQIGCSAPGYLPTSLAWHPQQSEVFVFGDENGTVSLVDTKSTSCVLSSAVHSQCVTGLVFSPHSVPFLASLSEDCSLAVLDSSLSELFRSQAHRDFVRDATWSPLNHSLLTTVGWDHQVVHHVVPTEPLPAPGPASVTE

Row | SMILES | IC50 (PRMT5/MEP50) [nM] | EC50 [1] [nM] | EC50 (Z-138 cells) [nM]
1 | CC(=O)c1ccc(NC(=O)CC2NC(N3CCN(Cc4ccccc4)CC3)=NC2=O)cc1 (stereo not drawn) [Compound 3-14] | 1000 to 10000 | > 20000 | > 20000
2 | Cc1ccccc1N1CC(NS(=O)(=O)c2cccc3c(N(C)C)cccc23)CC1=O (stereo not drawn) [Compound 4-4] | 101 to 1000 | 101 to 1000 | 10000 to 50000
3 | CC(C)(C)C(=O)N1CCN(c2nc(NC3COC3)cc(C(=O)NC[C@H](O)CN3CCc4ccccc4C3)n2)CC1 [Compound 4-9] | < 100 | < 100 | < 100
4 | O=C(NC[C@H](O)CN1Cc2ccccc2C1)c1cc(NC2CNC2)ncn1 [Compound 4-11] | 101 to 1000 | 101 to 1000 | > 1000
5 | COc1ccc(Cn2c(CN3CCCCC3)cnc2CN)cc1 [Compound 4-13] | 10000 to 50000 | > 1000 | > 5000
6 | CN(C)c1cccc2c(S(=O)(=O)NC3CC(=O)N(c4ccccc4F)C3)cccc12 (stereo not drawn) [Compound 5-4] | < 100 | 101 to 1000 | 1000 to 10000
7 | CN(C)c1cccc2c(S(=O)(=O)NC[C@@H](N)Cc3ccccc3)cccc12 [Compound 5-7, (S)—N-(2-amino-3-phenylpropyl)-5-(dimethylamino)naphthalene-1-sulfonamide] | < 100 | 101 to 1000 | 1000 to 10000
8 | CN1CCC(Nc2ccnc(C(=O)NC[C@H](O)CN3CCc4ccccc4C3)c2)CC1 [Compound 5-9] | < 100 | < 100 | > 5000
9 | CC(=O)N1CC(Nc2cc(C(=O)NC[C@H](O)CN3Cc4ccccc4C3)ncn2)C1 [Compound 5-11] | < 100 | 101 to 1000 | 1000 to 10000
10 | CC(=O)N1CC(Nc2cc(C(=O)NCC(C)(O)CN3CCc4ccccc4C3)ncn2)C1 (stereo not drawn) [Compound 6-9] | 101 to 1000 | 101 to 1000 | > 5000
11 | O=C(NC[C@H](O)CN1Cc2ccccc2C1)c1cncc(NC2CCN(CC(F)(F)F)CC2)c1 [Compound 6-11] | 101 to 1000 | 101 to 1000 | 10000 to 50000
12 | NCc1nccn1Cc1cccc(Br)c1 [Compound 6-13] | 10000 to 50000 | > 1000 | > 5000
13 | CN(C)c1cccc2c(S(=O)(=O)NC3CC(=O)N(c4ccccc4N)C3)cccc12 (stereo not drawn) [Compound 7-4] | < 100 | < 100 | 1000 to 10000
14 | CC(=O)N1CC(Nc2cc(C(=O)NC[C@@H](O)CN3CCc4ccccc4C3)ncn2)C1 [Compound 7-9] | < 100 | < 100 | 1000 to 10000
15 | O=C(NC[C@H](O)CN1Cc2ccccc2C1)c1cncc(NC2CCOCC2)c1 [Compound 7-11] | 101 to 1000 | 101 to 1000 | 1000 to 10000
16 | CN(C)c1cccc2c(S(=O)(=O)NC3CC(=O)N(c4ccccc4Cl)C3)cccc12 (stereo not drawn) [Compound 8-4] | 101 to 1000 | 1000 to 10000 | 10000 to 50000
17 | CC(=O)N1CC(Nc2cc(C(=O)N(C)C[C@H](O)CN3CCc4ccccc4C3)ncn2)C1 [Compound 8-9] | 101 to 1000 | < 100 | 1000 to 10000

Row | SMILES | IC50 (PRMT5/MEP50) [nM] | EC50 [1] [nM] | EC50 (Z-138 cells) [nM]
18 | O=C(NC[C@H](O)CN1Cc2ccccc2C1)c1cc(NC2COC2)nc(N2CCOCC2)n1 [Compound 8-11] | < 100 | < 100 | 1000 to 10000
19 | CC(=O)N1CCC(Nc2cc(C(=O)N(C)C[C@H](O)CN3CCc4ccccc4C3)ncn2)CC1 [Compound 9-9] | < 100 | 101 to 1000 | 101 to 1000
20 | O=C(NC[C@H](O)CN1Cc2ccccc2C1)c1cncc(NC2CCN(CC(F)(F)F)C2)c1 (stereo partly drawn) [Compound 9-11] | 101 to 1000 | 101 to 1000 | > 20000
21 | CC(=O)N1CCC(Nc2cc(C(=O)N(C)C[C@H](O)CN3CCc4ccccc4C3)ccn2)CC1 [Compound 10-9] | < 100 | < 100 | 101 to 1000
22 | CC(=O)N1CCC(Nc2cc(C(=O)NC(C)C(O)CN3CCc4ccccc4C3)ccn2)CC1 (stereo not drawn) [Compound 11-9] | < 100 | < 100 | 101 to 1000
23 | CC(=O)N1CCC(Nc2cc(C(=O)NCC(C)(O)CN3CCc4ccccc4C3)ccn2)CC1 (stereo not drawn) [Compound 12-9] | < 100 | < 100 | 1000 to 10000
24 | O=C(CC1NC(N2CCc3ccccc3C2)=NC1=O)Nc1ccc(Oc2ccccc2)cc1 (stereo not drawn) [Compound 12-14] | 101 to 1000 | > 20000 | > 20000
25 | CC(=O)N1CCC(Nc2cc(C(=O)NC[C@@H](O)CN3CCc4ccccc4C3(C)C)ccn2)CC1 [Compound 13-9] | 101 to 1000 | 101 to 1000 | 1000 to 10000
26 | CN(C)c1cccc2c(S(=O)(=O)NC3CCN(Cc4ccccc4)CC3)cccc12 [Compound 14-3] | < 100 | 1000 to 10000 | > 20000
27 | O=C(NC[C@H](O)CN1CCc2ccccc2C1)c1cc(NC2CN(C(=O)C3CCC3)C2)ncn1 [Compound 14-9] | < 100 | < 100 | < 100
28 | CCOc1c(C)cc(S(=O)(=O)NCC2CCN(Cc3cc4cc(OC)ccc4nc3Cl)CC2)cc1C [Compound 15-3] | 101 to 1000 | > 20000 | > 20000
29 | CCOC(=O)c1ccc(NC(=O)CC2NC(N3CCN(c4ccccc4)CC3)=NC2=O)cc1 (stereo not drawn) [Compound 20-14] | 101 to 1000 | 1000 to 10000 | > 20000
30 | O=C(CC1NC(N2CCN(Cc3ccccc3)CC2)=NC1=O)Nc1ccc(Cl)cc1 (stereo not drawn) [Compound 22-14] | 101 to 1000 | > 20000 | > 20000
31 | Cn1cnc2ccc(-c3cccc(OCC(O)CN4CCc5ccccc5C4)c3)cc21 (stereo not drawn) [Compound 23-9] | < 100 | 101 to 1000 | > 1000
32 | O=C(NC[C@@H](O)CN1CCc2ccccc2C1)c1cccc(NC2CCOCC2)c1 [Compound 24-9] | 101 to 1000 | 101 to 1000 | > 5000
33 | Nc1ncnc2c1ncn2[C@@H]1O[C@H](CSCC[C@@H](N)CO)[C@@H](O)[C@H]1O [Compound 92-1, (2S, 3S, 4R, 5R)-2-((((R)-3-amino-4-hydroxybutyl)thio)methyl)-5-(6-amino-9H-purin-9-yl)tetrahydrofuran-3,4-diol] | < 100 | 1000 to 10000 | 10000 to 50000
